# Assay results: patent publication US10722503B2, “Glitazones for topical application” (priority 2017, dated 2020)
# Key:
# keratosis pilaris (KP) = assay: Topical treatment of keratosis pilaris (KP) in patients, severity grading; assay type: in vivo, human; settings: formulation similar to that of Example 1, glitazone substituted for pioglitazone
# Text: Prior to treatment, the severity of the KP condition was graded. […]
# SEB-1 sebocytes = assay: In vitro treatment of cultured sebocytes, intracellular lipids (ADIPORED fluorescence normalized to DAPI cell count); assay type: cell-based; settings: formulation similar to that of Example 1, glitazone substituted for pioglitazone
# Procedure: Cultured SEB-1 sebocytes (Xia et al., Dermato-Endocrinology, 1(2):92-95 (2009)) were treated with the pioglitazone formulation of Example 1. Sebocytes were cultured in 96 wells plates (2500 cells/well), until confluency. Plates were washed twice with warm sterile PBS and then incubated (at 37° C. and 5% CO2) for another 48 hours after treating them with the pioglitazone formulation in treatment media. After 48 hours, media was carefully removed from the plates and, after washing with PBS, ADIPORED™ reagent (Lonza Walkersville, Inc., Walkersville, Md.) was carefully added into each well. The plates were read for intracellular lipids using a spectrofluorometer. The lipid fluorescence was normalized against the total cell count that was performed using DAPI staining. Following treatment, the lipid content in the treated sebocytes was determined to have increased by 27% compared to control untreated sebocytes. The increased lipid content was confirmed by determining the expression of SREBP-1, a lipid synthesis transcription factor.
SMILES,results of Examples 2 and 3 (KP treatment) repeated with another glitazone formulation (keratosis pilaris (KP)),results of Example 4 (sebocyte lipid content) repeated with another glitazone formulation (SEB-1 sebocytes)
COc1ccc(Oc2cc(N(C)CCOc3ccc(CC4SC(=O)NC4=O)cc3)ncn2)cc1 (stereo not drawn) [lobeglitazone],Results similar to those obtained in Examples 2 to 4 using pioglitazone,Results similar to those obtained in Examples 2 to 4 using pioglitazone
O=C1NC(=O)C(Cc2ccc3cc(OCc4ccccc4F)ccc3c2)S1 (stereo not drawn) [netoglitazone],Results similar to those obtained in Examples 2 to 4 using pioglitazone,Results similar to those obtained in Examples 2 to 4 using pioglitazone
COc1ccc2nc(COc3ccc(CC4SC(=O)NC4=O)cc3)n(C)c2c1 (stereo not drawn) [rivoglitazone],Results similar to those obtained in Examples 2 to 4 using pioglitazone,Results similar to those obtained in Examples 2 to 4 using pioglitazone
